# pIC50: −log10 of the molar value. Like-named read-outs stand apart in the source and are kept apart here.
# What was measured:
# [1] = Resazurin-based in vitro cytotoxicity with HepG2 cells; type: cell-based, human; settings: HepG2 cells; human hepatocarcinoma cells, 48 h
# Description: The HepG2 cells were washed with DPBS (Dulbecco’s PBS without calcium and magnesium, Gibco, Cat #21600-044) and trypsinized with trypsin solution in DPBS. Trypsinization was stopped by adding culture medium, and after being stained with Trypan Blue (SORS Ukraine) cells were counted using a counting chamber (Hausser Scientific, Cat #3500). The cell suspension was placed in a falcon tube containing plating medium DMEM/High glucose with 1% fetal bovine serum, 100 units/mL penicillin, and 100 µg/mL streptomycin. Cells at a density of 250,000 cells/mL were seeded in sterile 384-well plates (Greiner Bio-One, Cat #781091) in a volume of […] and incubated at 37 °C and 5% CO2. Serial dilutions of ten 3-fold dilution steps of test and reference compounds covering a range from 100.0 to 0.005 µM were added to the wells, followed by incubation at 37 °C and 5% CO2 for 48 h. Then, resazurin (50 µM final concentration) was added and plates were incubated for another 3 h. The plates were read with a SpectraMax microplate reader (Molecular Devices Cooperation, Sunnyvale, CA, USA)) using an extinction wavelength of 555 nm and an emission wavelength of 570 nm. IC50 values were calculated using GraphPad Prism 9.0 charting software. Doxorubicin (Sigma Aldrich D1515) was used as control.
# [2] = Resazurin-based in vitro cytotoxicity with L-6 cells; type: cell-based, rat
# Description: Serial drug dilutions of eleven 3-fold dilution steps covering a range from 100 to 0.002 µg/mL were prepared. After 70 h of incubation, the plates were inspected under an inverted microscope to assure growth of the controls and sterile conditions. […] The plates were read with a Spectramax Gemini XS microplate fluorometer (Molecular Devices Cooperation, Sunnyvale, CA, USA) using an excitation wavelength of 536 nm and an emission wavelength of 588 nm. IC50 values were calculated by linear regression from the sigmoidal dose–inhibition curves using SoftmaxPro software Version 8.2.1 (Molecular Devices Cooperation, Sunnyvale, CA, USA). Podophyllotoxin (Sigma P4405) was used as control.
# [3] = Parallel artificial membrane permeability assay (PAMPA); settings: for Pe: PAMPA standards; for Papp at 5 h, 200 µM: PAMPA, pH 7.4, Pe, PBS pH 7.4, 200 µM, room temperature
# Description: With the high-throughput PAMPA the newly synthesized compounds were tested for their passive permeability through cell membranes without the influence of efflux pumps or transporter proteins. The assay was performed using a Corning® Gentest^TM Precoated PAMPA Plate System (Corning, Glendale, AZ, USA) with 96-well polystyrene plates. The bottom of the acceptor plate consists of a porous membrane, whereby the pores are lined with a lipid–oil–lipid triple layer. Stock solutions of each test compound at 10 mM were prepared in DMSO or methanol and diluted with phosphate-buffered saline (PBS at a pH of 7.4) to a final concentration of 200 µM. […] The donor plate (bottom plate) was filled with the compound solutions, whereby all compounds were tested in quadruplicates. Each well of the acceptor plate (top plate) was filled with PBS buffer. Donor and acceptor plates were combined and incubated at room temperature for 5 h. After that, the plates were separated and 150 µL of each well of both plates were transferred to 96-well UV plates (Greiner Bio-One). Absorption at different wavelengths covering a range from 200 to 300 nm was measured using a SpectraMax M3 UV plate reader. […] The plates were analyzed at the wavelength where the R2 value of the calibration curve was higher than 0.99 [47].
# Recovery of compounds from donor and acceptor wells (mass retention) was calculated as shown in the equation below. Data were only accepted when recovery exceeded 70%. The equation is as follows:(3) R=1−[cDt×VD+cAt×VA]/(c0×VD) where
# P. falciparum NF54 = assay: In vitro microplate assay against P. falciparum NF54 (3H-hypoxanthine incorporation); type: cell-based, Plasmodium falciparum; settings: Plasmodium falciparum
# Description: Serial drug dilutions of eleven 3-fold dilution steps covering a range from 100 to 0.002 µg/mL were prepared. […] After 48 h of incubation time, 0.05 mL of ^3H-hypoxanthine (=0.5 µCi) was added to each well of the plate. The plates were incubated for a further 24 h under the same conditions. Plates were then harvested using a BetaplateTM cell harvester (Wallac, Zurich, Switzerland). Red blood cells were transferred onto a glass fiber filter and then washed with distilled aqua demin. The dried filters were inserted into a plastic foil with 10 mL of scintillation fluid and counted in a BetaplateTM liquid scintillation counter (Wallac, Zurich, Switzerland). IC50 values were calculated from sigmoidal inhibition curves by linear regression using Microsoft Excel. […] Louis, MO, USA) was used as control.
# [4] = rat skeletal myofibroblasts, read-out: Cytotoxicity L-6 Cells IC50
# [5] = NF54, chloroquine-sensitive strain NF54, erythrocytic stages, read-out: P.f.NF54 IC50
SMILES,Pe [3],"Papp at 5 h, 200 µM [3]",pIC50 (P. falciparum NF54; [5]),"pIC50 (P. falciparum NF54; NF54, read-out: P.f.NF54 IC50)",IC50 at 48 h [1],"IC50 at 70 h [2, 4]",IC50 at 70 h ([2]; rat)
"COc1cccc2c1C(=O)c1c(O)c3c(c(O)c1C2=O)C[C@@](O)(C(=O)CO)C[C@@H]3O[C@H]1C[C@H](N)[C@H](O)[C@H](C)O1 [DOX, doxorubicin, reference compound]",,,,,0.3 µM,,
"COc1cc([C@@H]2c3cc4c(cc3[C@H](O)[C@H]3COC(=O)[C@H]23)OCO4)cc(OC)c1OC [POD, podophyllotoxin, reference compound]",,,,,,0.012 µM,
"CN(C)c1ccccc1NC(=O)c1cccc(C(F)(F)F)c1Oc1ccc(F)cc1 [Compound 35, N-[2-(Dimethylamino)phenyl]-2-(4-fluorophenoxy)-3-(trifluoromethyl)benzamide]",,,5.36,,,,25.1 µM
"CN1CCN(c2ccccc2NC(=O)c2cccc(C(F)(F)F)c2Oc2ccc(F)cc2)CC1 [Compound 31, 2-(4-Fluorophenoxy)-N-[2-(4-methylpiperazin-1-yl)phenyl]-3-(trifluoromethyl)benzamide]",,,4.85,,,,120 µM
"CCN(CC)CCCC(C)Nc1ccnc2cc(Cl)ccc12 (centres unmarked) [CQ, chloroquine, reference compound]",,,,8.05,,90.9 µM,
"O=C(Nc1ccc(N2CCOCC2)cc1)c1cccc(C(F)(F)F)c1Oc1ccc(F)cc1 [Compound 33, 2-(4-Fluorophenoxy)-N-[4-(morpholin-4-yl)phenyl]-3-(trifluoromethyl)benzamide]",,3.92 ×10⁻⁶ cm/s,5.17,,35.3 µM,,195 µM
"O=C(Nc1ccccc1N1CCOCC1)c1cccc(C(F)(F)F)c1Oc1ccc(F)cc1 [Compound 32, 2-(4-Fluorophenoxy)-N-[2-(morpholin-4-yl)phenyl]-3-(trifluoromethyl)benzamide]",,6.63 ×10⁻⁶ cm/s,5.52,,> 100 µM,,161 µM

# More lines, main results first:
Pe [3],"Papp at 5 h, 200 µM [3]",pIC50 (P. falciparum NF54; [5]),"pIC50 (P. falciparum NF54; NF54, read-out: P.f.NF54 IC50)",SMILES,IC50 at 48 h [1],"IC50 at 70 h [2, 4]",IC50 at 70 h ([2]; rat)
0.09 ×10⁻⁶ cm/s,,,,"NS(=O)(=O)c1cc2c(cc1Cl)NCNS2(=O)=O [hydrochlorothiazide, reference compound]",,,
,3.91 ×10⁻⁶ cm/s,5.59,,"O=C(Nc1ccc(N2CCNCC2)cc1)c1cccc(C(F)(F)F)c1 [Compound 66, N-[4-(Piperazin-1-yl)phenyl]-3-(trifluoromethyl)benzamide]",11.8 µM,,41.5 µM
,0.26 ×10⁻⁶ cm/s,4.95,,"CC(=O)Nc1ccc(Oc2c(C(=O)Nc3ccccc3N3CCNCC3)cccc2C(F)(F)F)cc1 [Compound 54, 2-(4-Acetamidophenoxy)-N-[2-(piperazin-1-yl)phenyl]-3-(trifluoromethyl) benzamide]",,,13.2 µM
8 ×10⁻⁶ cm/s,,,,"Cn1c(=O)c2c(ncn2C)n(C)c1=O [caffeine, reference compound]",,,
,,4.80,,"CC(=O)Nc1ccc(Oc2c(C(=O)Nc3ccc(N4CCNCC4)cc3)cccc2C(F)(F)F)cc1 [Compound 63, 2-(4-Acetamidophenoxy)-N-[4-(piperazin-1-yl)phenyl]-3-(trifluoromethyl)benzamide]",,,113 µM
,6.39 ×10⁻⁶ cm/s,5.98,,"O=C(Nc1ccccc1N1CCNCC1)c1cccc(C(F)(F)F)c1Oc1ccc(F)cc1 [Compound 53, 2-(4-Fluorophenoxy)-N-[2-(piperazin-1-yl)phenyl]-3-(trifluoromethyl)benzamide]",4.1 µM,,13.5 µM
,,5.12,,"CN(C)c1ccc(NC(=O)c2cccc(C(F)(F)F)c2Oc2ccc(F)cc2)cc1 [Compound 36, N-[4-(Dimethylamino)phenyl]-2-(4-fluorophenoxy)-3-(trifluoromethyl)benzamide]",> 100 µM,,239 µM
,1.82 ×10⁻⁶ cm/s,4.29,,"CC(C)(C)OC(=O)N1CCN(C(=O)c2cccc(C(F)(F)F)c2Oc2ccc(F)cc2)CC1 [Compound 50, tert-Butyl-4-[2-(4-fluorophenoxy)-3-(trifluoromethyl)benzoyl]piperazine-1-carboxylate]",35.2 µM,,41.4 µM

# — article PMC12298624, “Anti-Infective Properties, Cytotoxicity, and In Silico ADME Parameters of Novel 4′-(Piperazin-1-yl)benzanilides” (Pharmaceuticals, 2025)
